Columns and labels:
primary BMDMs [1] = assay: Seahorse assays (OCR, ECAR, PER) in primary BMDMs; type: cell-based, mouse; conditions: for metabolic reprogramming: BMDMs exposed to amorphous or crystalline PLA extract, dose-dependent; for ECAR / OCR / PER: Example 2, BMDMs exposed to PLA extracts of varied stereochemistries plus inhibitor
Description: To determine the metabolic pathways responsible for the observed bioenergetic changes, Seahorse assays were used to measure oxygen consumption rate (OCR), extracellular acidification rate (ECAR) and lactate-linked proton efflux rate (PER) in a customized medium (pH 7.4). Basal measurements of OCR, ECAR, and PER were obtained in real time using the Seahorse XFe-96 Extracellular Flux Analyzer (Agilent Technologies). Prior to running the assay, cell culture medium was washed with and replaced by the Seahorse XF DMEM medium (pH 7.4) supplemented with 25 mM D-glucose and 4 mM glutamine. The Seahorse plates were equilibrated in a non-CO2 incubator for an hour prior to the assay. The Seahorse ATP rate and cell energy phenotype assays were run according to manufacturer's instruction and all reagents for the Seahorse assays were sourced from Agilent Technologies. Wave software (Version 2.6.1) was used to export Seahorse data directly as means±standard deviation (SD).
Seahorse assays measures ECAR as an index of glycolytic flux, OCR as an index of oxidative phosphorylation and PER as an index of monocarboxylate transporter function in live cells; and are used to assess for metabolic reprogramming. Primary BMDMs exposed to amorphous PLA extract were metabolically altered, showing a 2-fold increase in oxidative phosphorylation (OCR; FIG. 10), 3.5-fold increase in glycolytic flux (ECAR; FIG. 11) and 3.5-fold increase in monocarboxylate transporter activity (PER; FIG. 12) in comparison to untreated BMDMs.

primary BMDMs [2] = assay: Crystal violet cell viability / cell number assay in primary BMDMs; type: cell-based, mouse; conditions: BMDMs treated with amorphous or crystalline PLA extract
Experimental: Breakdown products of PLA (hereafter “extracts”) were generated in serum-containing media and used after twelve days of incubation in a shaker at 37° C. […] Immune cells were maintained in the PLA extracts for twelve days. BMDMs derived from C57BL/6J mice (Jackson Laboratories) of 3-4 months were used. Mouse embryonic fibroblasts (NIH 3T3 cells, hereafter “MEFs”) were stably transfected with a Sleeping Beauty transposon plasmid (pLuBIG) encoding blasticidin resistance linked to eGFP, and luciferase. Bioluminescence of the fibroblasts served as in indicator of ATP levels. Cell viability was measured using the crystal violet staining assay at room temperature. 50 μL media containing cells is incubated with 150 μL of 99.9% methanol for 15 minutes. 100 μL of 0.5% crystal violet (25% methanol) is added for 20 minutes. Each well is emptied and washed twice with 200 μL phosphate buffered saline for 2 minutes. Absorbance (optical density) was acquired at 570 nm using the SpectraMax M3 Spectrophotometer (Molecular Devices) and SoftMax Pro software (ver. 7.0.2).

[3] = tested on: Mouse embryonic fibroblasts (NIH 3T3 cells); assay: ATP levels in MEFs (luciferase bioluminescence in live cells; standard ATP assay on lysates); type: cell-based; conditions: for Total ATP levels in MEFs: MEFs exposed to each of PLLA, PDLA and stereocomplex PLA extracts plus inhibitor; for increased bioenergetic (ATP) levels: amorphous or crystalline PLA extract-treated fibroblasts plus inhibitor, spatiotemporal and dose-dependent
Experimental: Breakdown products of PLA (hereafter “extracts”) were generated in serum-containing media and used after twelve days of incubation in a shaker at 37° C. The in vitro degradation mimics PLA degradation in vivo. Immune cells were maintained in the PLA extracts for twelve days. BMDMs derived from C57BL/6J mice (Jackson Laboratories) of 3-4 months were used. Mouse embryonic fibroblasts (NIH 3T3 cells, hereafter “MEFs”) were stably transfected with a Sleeping Beauty transposon plasmid (pLuBIG) encoding blasticidin resistance linked to eGFP, and luciferase. Bioluminescence of the fibroblasts served as in indicator of ATP levels. Cell viability was measured using the crystal violet staining assay at room temperature. 50 μL media containing cells is incubated with 150 μL of 99.9% methanol for 15 minutes. 100 μL of 0.5% crystal violet (25% methanol) is added for 20 minutes. Each well is emptied and washed twice with 200 μL phosphate buffered saline for 2 minutes. Absorbance (optical density) was acquired at 570 nm using the SpectraMax M3 Spectrophotometer (Molecular Devices) and SoftMax Pro software (ver. 7.0.2).
To exclude the possibility that changing luciferase expression (by transcription or translation) was responsible for observed bioenergetic changes, wild-type cells were lysed after exposure to PLA extract. Controlled amounts of luciferase and D-luciferin were added to the standard ATP assay. By day 12, there was a 1.9-and 2.3-fold increase in ATP levels among cells exposed to crystalline and amorphous PLA extract, respectively (FIG. 2). To exclude the possibility that PLA extracts affect the biochemical reaction underlying bioenergetic measurements, lysed fibroblasts were exposed to D-luciferin, luciferase and control or PLA extract.
ATP levels in live cells were assessed by bioluminescence on the IVIS Spectrum in vivo imaging system (PerkinElmer) after addition of 150 μg/mL D-luciferin (PerkinElmer). For lysed cells, the standard ATP/ADP kits (Sigma-Aldrich) were used according to manufacturer's instructions.

[4] = tested on: primary macrophages (BMDMs); assay: Cytokine and chemokine protein levels in macrophage supernatants (MILLIPLEX multiplex, IL-6 ELISA); type: cell-based, mouse; conditions: for abnormally increased levels of IL-1β / abnormally increased levels of IL-6 / abnormally increased levels of MCP-1 / abnormally increased levels of TNF-α: macrophages exposed to PLA extract plus inhibitor
Experimental: Cytokine and chemokine levels were measured using a MILLIPLEX MAP mouse magnetic bead multiplex kit (MilliporeSigma) to assess for IL-6, MCP-1, TNF-a, IL-1b, IL-4, IL-10, IFN-1 and 1L-13 protein expression in supernatants. Data was acquired using Luminex 200 (Luminex Corporation) by the xPONENT software (Version 3.1, Luminex Corporation). […] For statistical analyses, those values were expressed as 3.1 pg/mL. Values exceeding the dynamic range of the assay, in accordance with manufacturer's instruction, were excluded. Additionally, IL-6 ELISA kits (RayBiotech) for supernatants were used according to manufacturer's instructions.

[5] = In-vitro studies indicating effective concentration of 2DG; type: cell-based
Experimental: Amorphous PLA was compounded with 2DG at 190° C. for 3 mins in a DSM 15 cc mini-extruder (DSM Xplore) and pelletizer (Leistritz Extrusion Technology). Our in-vitro studies indicate 1 mM 2DG to be an effective concentration. Accordingly, we estimated that 18 mg of 2DG in 10 g of amorphous PLA will approximate effective concentrations after accounting for potential thermal degradation of 2DG, converting mM to w/w values. […] To exclude the effect of melt-blending as a confounder in our studies, amorphous PLA controls were processed under the same thermal conditions to make “reprocessed” amorphous PLA. Pellets from melt-blending were made into 1.75 mm diameter filaments using an extruder (Filabot EX2) at 170° C. with air set at 93. For surgical implantation, amorphous PLA filaments were cut into 1 mm lengths; four biomaterials were subcutaneously implanted on the dorsum (back) of each mouse, with two cranially (2.5 cm apart) and two caudally (2.5 cm apart).

[6] = macrophages exposed to the PLLA and PDLA extracts plus inhibitor
[7] = BMDMs, prolonged (day 7) exposure to L-lactic acid

| Compound | metabolic reprogramming (primary BMDMs [1]) | ECAR (primary BMDMs [1]) | OCR (primary BMDMs [1]) | PER (primary BMDMs [1]) | cell viability (primary BMDMs [2]) | Total ATP levels in MEFs [3] | increased bioenergetic (ATP) levels [3] | abnormally increased levels of IL-1β [4] | abnormally increased levels of IL-6 [4] | abnormally increased levels of MCP-1 [4] | abnormally increased levels of TNF-α [4] | IL-10 levels [4, 6] | also measured |
| --- | --- | --- | --- | --- | --- | --- | --- | --- | --- | --- | --- | --- | --- |
| NOCC(=O)O [aminooxyacetic acid] | inhibited | dose-dependent decrease | dose-dependent decrease | dose-dependent decrease | selectively reduced | decreased | inhibited | modulated | modulated | modulated | modulated | increased | increase in IL-10 expression ([4]; amorphous PLA extract plus inhibitor, relative to macrophages exposed to PLA extract): 3.4 fold; IL-10 expression ([4]; crystalline PLA extract plus inhibitor, relative to macrophages exposed to PLA extract): unchanged; IL-10 levels ([4]; macrophages treated with stereocomplex PLA extracts plus inhibitor): further increased |
| C[C@H](O)C(=O)O [L-lactic acid] |  |  |  |  |  |  |  |  |  |  |  |  | increase in glycolytic flux (ECAR) (primary BMDMs [1]; [7]): 2.8 fold; increase in monocarboxylate transporter function (PER) (primary BMDMs [1]; [7]): 2.8 fold; increase in oxidative phosphorylation (OCR) (primary BMDMs [1]; [7]): 2.3 fold; increase in IL-6 protein expression ([4]; compared to untreated macrophages): 2.3 fold |
| O=C(C=Cc1cccnc1)c1ccncc1 [3PO, 3-(3-pyridinyl)-1-(4-pyridinyl)-2-propen-1-one] | inhibited | dose-dependent decrease | dose-dependent decrease | dose-dependent decrease | selectively reduced | decreased | inhibited | modulated | modulated | modulated | modulated |  | cytokine values ([4]; in some experiments): < 3.2 pg/mL |
| O=CC[C@@H](O)[C@H](O)[C@H](O)CO [2DG, 2-deoxyglucose] | inhibited | dose-dependent decrease | dose-dependent decrease | dose-dependent decrease | selectively reduced | decreased | inhibited | modulated | modulated | modulated | modulated | increased | effective concentration [5]: 1 mM |
